Data published in ChEMBL document CHEMBL1681785, “Structure-activity relationships of flavonoids as inhibitors of breast cancer resistance protein (BCRP)” (Bioorg Med Chem, 2011).
Active and inactive are the calls of the source. No cut-off for these calls is given here.

Key:
[1] = target: T1, Broad substrate specificity ATP-binding cassette transporter ABCG2 (Homo sapiens, UniProt Q9UNQ0); experiment: Inhibition of BCRP expressed in MDCK cells using Hoechst 33342 staining; format: cell-based; settings: read-out: IC50
T1 sequence (Q9UNQ0 whole entry): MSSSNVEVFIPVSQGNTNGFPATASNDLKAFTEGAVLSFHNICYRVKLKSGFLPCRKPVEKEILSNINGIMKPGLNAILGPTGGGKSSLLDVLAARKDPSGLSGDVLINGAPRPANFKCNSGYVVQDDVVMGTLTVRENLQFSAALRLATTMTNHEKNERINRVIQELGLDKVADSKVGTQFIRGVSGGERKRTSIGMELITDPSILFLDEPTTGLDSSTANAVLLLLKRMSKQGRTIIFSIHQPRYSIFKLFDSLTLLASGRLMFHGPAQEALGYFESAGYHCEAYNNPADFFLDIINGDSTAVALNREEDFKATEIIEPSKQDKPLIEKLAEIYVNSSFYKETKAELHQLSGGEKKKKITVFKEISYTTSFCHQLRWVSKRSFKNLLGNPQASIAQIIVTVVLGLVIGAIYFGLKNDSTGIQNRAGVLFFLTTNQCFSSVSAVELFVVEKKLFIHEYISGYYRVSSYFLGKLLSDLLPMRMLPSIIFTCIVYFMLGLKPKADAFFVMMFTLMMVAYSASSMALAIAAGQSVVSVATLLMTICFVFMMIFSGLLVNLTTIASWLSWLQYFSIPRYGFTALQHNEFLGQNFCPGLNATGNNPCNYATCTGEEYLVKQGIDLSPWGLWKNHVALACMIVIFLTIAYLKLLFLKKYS

[2] = target: ATP-dependent translocase ABCB1 (Homo sapiens, UniProt P08183); experiment: Inhibition of MDR1 expressed in MDCK cells using rhodamine 123 staining by flow cytometry; format: cell-based
Chain of ATP-dependent translocase ABCB1 (P08183 whole entry): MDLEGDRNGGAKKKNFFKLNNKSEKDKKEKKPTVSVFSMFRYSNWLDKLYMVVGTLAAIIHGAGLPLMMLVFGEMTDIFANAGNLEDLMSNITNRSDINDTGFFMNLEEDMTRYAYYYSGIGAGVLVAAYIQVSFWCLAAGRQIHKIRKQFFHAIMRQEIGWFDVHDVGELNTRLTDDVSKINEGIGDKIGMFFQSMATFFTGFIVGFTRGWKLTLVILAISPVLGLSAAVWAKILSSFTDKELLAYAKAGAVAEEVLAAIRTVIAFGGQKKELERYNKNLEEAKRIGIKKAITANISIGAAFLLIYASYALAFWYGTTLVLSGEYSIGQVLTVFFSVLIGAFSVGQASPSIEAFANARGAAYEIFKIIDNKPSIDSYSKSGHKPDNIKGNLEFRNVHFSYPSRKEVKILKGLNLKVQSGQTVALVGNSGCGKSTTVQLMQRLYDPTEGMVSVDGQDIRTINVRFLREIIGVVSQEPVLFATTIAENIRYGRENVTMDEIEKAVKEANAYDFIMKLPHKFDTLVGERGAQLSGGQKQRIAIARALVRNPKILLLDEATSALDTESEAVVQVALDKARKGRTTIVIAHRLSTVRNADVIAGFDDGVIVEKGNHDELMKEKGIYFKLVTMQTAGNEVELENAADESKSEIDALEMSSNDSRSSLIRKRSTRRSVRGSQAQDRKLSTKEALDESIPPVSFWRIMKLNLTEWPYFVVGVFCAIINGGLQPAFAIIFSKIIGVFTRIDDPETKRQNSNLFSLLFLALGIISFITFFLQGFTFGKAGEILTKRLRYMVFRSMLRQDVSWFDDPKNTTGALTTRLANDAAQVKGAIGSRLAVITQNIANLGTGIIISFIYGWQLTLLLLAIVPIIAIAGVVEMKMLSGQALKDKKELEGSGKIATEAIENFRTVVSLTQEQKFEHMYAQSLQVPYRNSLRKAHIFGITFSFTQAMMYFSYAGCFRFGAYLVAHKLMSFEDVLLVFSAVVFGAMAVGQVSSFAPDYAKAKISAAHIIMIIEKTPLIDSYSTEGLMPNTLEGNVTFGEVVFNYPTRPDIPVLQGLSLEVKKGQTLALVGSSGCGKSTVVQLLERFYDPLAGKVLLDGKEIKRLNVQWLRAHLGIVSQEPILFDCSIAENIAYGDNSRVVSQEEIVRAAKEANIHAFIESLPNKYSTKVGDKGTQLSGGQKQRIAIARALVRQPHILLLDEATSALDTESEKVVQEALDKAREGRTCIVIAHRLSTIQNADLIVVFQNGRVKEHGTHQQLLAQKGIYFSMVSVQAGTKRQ

A2780 ADR = experiment: Inhibition of P-gp expressed in A2780adr cells at 10 uM by calcein AM accumulation assay relative to verapamil; format: cell-based
A2780 = experiment: Cytotoxicity against human A2780 cells assessed as intracellular ATP level at 10 uM after 72 hrs by luminometry; format: functional, cell-based
MCF7 = experiment: Cytotoxicity against human MCF7 cells assessed as intracellular ATP level at 10 uM after 72 hrs by luminometry; format: functional, cell-based
[3] = target: T1, Broad substrate specificity ATP-binding cassette transporter ABCG2; experiment: Inhibition of BCRP expressed in MCF-7 MX cells using Hoechst 33342 staining; format: cell-based, MCF7; settings: read-out: IC50
[4] = Inhibition of P-gp expressed in A2780adr cells by calcein AM accumulation assay; format: cell-based; settings: A2780 ADR
[5] = target: Multidrug resistance-associated protein 1 (Homo sapiens, UniProt P33527); experiment: Inhibition of MRP1 expressed in human 2008 cells assessed as calcein AM accumulation by cell based assay
Chain of Multidrug resistance-associated protein 1 (P33527 whole entry): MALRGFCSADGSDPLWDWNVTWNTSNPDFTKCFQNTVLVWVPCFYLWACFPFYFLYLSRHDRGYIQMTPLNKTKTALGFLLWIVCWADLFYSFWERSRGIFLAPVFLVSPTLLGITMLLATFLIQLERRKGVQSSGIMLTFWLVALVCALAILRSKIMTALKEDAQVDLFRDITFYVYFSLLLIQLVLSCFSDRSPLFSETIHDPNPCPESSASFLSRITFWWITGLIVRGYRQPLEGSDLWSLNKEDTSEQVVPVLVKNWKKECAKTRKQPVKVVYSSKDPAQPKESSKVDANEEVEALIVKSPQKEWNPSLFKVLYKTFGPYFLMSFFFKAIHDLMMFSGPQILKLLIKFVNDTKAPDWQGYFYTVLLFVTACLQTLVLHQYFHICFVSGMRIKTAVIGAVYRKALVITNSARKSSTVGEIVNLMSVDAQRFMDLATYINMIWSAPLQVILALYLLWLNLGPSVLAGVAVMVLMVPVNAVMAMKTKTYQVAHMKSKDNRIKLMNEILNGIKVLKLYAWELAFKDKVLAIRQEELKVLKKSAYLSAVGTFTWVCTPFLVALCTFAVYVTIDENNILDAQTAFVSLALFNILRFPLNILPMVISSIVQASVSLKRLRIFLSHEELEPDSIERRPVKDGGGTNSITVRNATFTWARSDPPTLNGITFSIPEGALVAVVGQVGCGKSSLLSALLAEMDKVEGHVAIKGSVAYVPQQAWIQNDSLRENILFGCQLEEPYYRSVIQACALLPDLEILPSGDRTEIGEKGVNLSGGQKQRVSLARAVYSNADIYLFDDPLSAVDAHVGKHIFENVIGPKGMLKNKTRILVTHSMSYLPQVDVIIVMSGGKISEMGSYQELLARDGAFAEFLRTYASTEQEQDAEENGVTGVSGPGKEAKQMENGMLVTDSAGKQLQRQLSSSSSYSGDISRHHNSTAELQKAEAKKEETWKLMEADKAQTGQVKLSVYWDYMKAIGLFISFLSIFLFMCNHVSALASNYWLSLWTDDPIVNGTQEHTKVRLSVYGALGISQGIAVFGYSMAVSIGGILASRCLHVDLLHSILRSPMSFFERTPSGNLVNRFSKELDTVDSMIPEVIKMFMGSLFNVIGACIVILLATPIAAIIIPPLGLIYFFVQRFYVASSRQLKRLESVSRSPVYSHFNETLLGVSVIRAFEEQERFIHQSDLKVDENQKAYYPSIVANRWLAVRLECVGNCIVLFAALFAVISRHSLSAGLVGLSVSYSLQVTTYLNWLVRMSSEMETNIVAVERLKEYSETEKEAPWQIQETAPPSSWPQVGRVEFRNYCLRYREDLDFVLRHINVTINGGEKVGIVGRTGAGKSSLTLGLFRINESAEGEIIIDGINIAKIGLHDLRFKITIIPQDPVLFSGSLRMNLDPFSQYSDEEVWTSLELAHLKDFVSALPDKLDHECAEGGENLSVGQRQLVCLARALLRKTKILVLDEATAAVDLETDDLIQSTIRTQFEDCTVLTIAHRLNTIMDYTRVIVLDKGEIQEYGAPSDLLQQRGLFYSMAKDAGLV

IC50 [1] [µM]	IC50 [2] [µM]	IC50 [3] [µM]	IC50 [4] [µM]	IC50 [5] [µM]	Compound	inhibition (A2780 ADR)	Activity (A2780)	Activity (MCF7)
0.46	13	0.68	9.4	50	COc1cc(O)c2c(=O)c(OC)c(-c3ccc(OC)c(O)c3)oc2c1 [AYANIN]	inactive	inactive	inactive
–	–	–	–	12.6	COc1ccc2c(c1)c(CC(=O)O)c(C)n2C(=O)c1ccc(Cl)cc1 [INDOMETHACIN]	–	–	–
0.39	16	0.9	12	50	COc1cc(O)c2c(=O)c(OC)c(-c3ccc(OC)c(OC)c3)oc2c1 [RETUSIN]	inactive	inactive	inactive
